# Columns and labels:
# Format in all cases: cell-based
# [1] = molecular target: proteins of U3A human fibrosarcoma cells (4462 proteins detected) (Homo sapiens, UniProt Q9Y3B4); settings: protein SF3B6; soluble abundance after heat, U3A cells
# [2] = molecular target: proteins of U3A human fibrosarcoma cells (4462 proteins detected) (Homo sapiens, UniProt Q12933); settings: protein TRAF2; U3A cells
# [3] = molecular target: proteins of U3A human fibrosarcoma cells (4462 proteins detected) (Homo sapiens, UniProt Q86TU7); settings: protein SETD3; U3A cells
# [4] = molecular target: proteins of U3A human fibrosarcoma cells (4462 proteins detected) (Homo sapiens, UniProt Q76FK4); settings: protein NOL8; soluble abundance after heat, U3A cells
# [5] = molecular target: proteins of U3A human fibrosarcoma cells (4462 proteins detected) (Homo sapiens, UniProt Q9NVA2); settings: protein SEPT11, U3A cells
# [6] = molecular target: proteins of U3A human fibrosarcoma cells (4462 proteins detected) (Homo sapiens, UniProt P48556); settings: protein PSMD8; U3A cells
# [7] = molecular target: proteins of U3A human fibrosarcoma cells (4462 proteins detected) (Homo sapiens, UniProt Q1ED39); settings: protein KNOP1; U3A cells
# [8] = molecular target: proteins of U3A human fibrosarcoma cells (4462 proteins detected) (Homo sapiens, UniProt Q9BW91); settings: protein NUDT9, U3A cells
# [9] = molecular target: proteins of U3A human fibrosarcoma cells (4462 proteins detected) (Homo sapiens, UniProt Q92692); settings: protein PVRL2; U3A cells
# [10] = molecular target: proteins of U3A human fibrosarcoma cells (4462 proteins detected) (Homo sapiens, UniProt Q99470); settings: protein SDF2, U3A cells
# [11] = molecular target: proteins of U3A human fibrosarcoma cells (4462 proteins detected) (Homo sapiens, UniProt Q9H7Z7); settings: protein PTGES2, U3A cells
# [12] = molecular target: proteins of U3A human fibrosarcoma cells (4462 proteins detected) (Homo sapiens, UniProt Q9Y6D5); settings: protein ARFGEF2; U3A cells
# [13] = molecular target: proteins of U3A human fibrosarcoma cells (4462 proteins detected) (Homo sapiens, UniProt Q9Y5J6); settings: protein TIMM10B; U3A cells
# [14] = molecular target: proteins of U3A human fibrosarcoma cells (4462 proteins detected) (Homo sapiens, UniProt Q8N4Q1); settings: protein CHCHD4; soluble abundance after heat, U3A cells
# [15] = molecular target: proteins of U3A human fibrosarcoma cells (4462 proteins detected) (Homo sapiens, UniProt Q9GZV4); settings: protein EIF5A2; U3A, 10 μM, 2 h
# [16] = molecular target: proteins of U3A human fibrosarcoma cells (4462 proteins detected) (Homo sapiens, UniProt O00629); settings: protein KPNA4; U3A cells
# [17] = molecular target: proteins of U3A human fibrosarcoma cells (4462 proteins detected) (Homo sapiens, UniProt Q96EQ0); settings: protein SGTB, U3A cells
# [18] = molecular target: proteins of U3A human fibrosarcoma cells (4462 proteins detected) (Homo sapiens, UniProt O95218); settings: protein ZRANB2, U3A cells
# [19] = molecular target: proteins of U3A human fibrosarcoma cells (4462 proteins detected) (Homo sapiens, UniProt Q9UJF2); settings: protein RASAL2, U3A cells
# [20] = molecular target: proteins of U3A human fibrosarcoma cells (4462 proteins detected) (Homo sapiens, UniProt Q9BYN8); settings: protein MRPS26; soluble abundance after heat, U3A cells
# [21] = molecular target: proteins of U3A human fibrosarcoma cells (4462 proteins detected) (Homo sapiens, UniProt Q9UNN8); settings: protein PROCR; U3A cells
# [22] = molecular target: proteins of U3A human fibrosarcoma cells (4462 proteins detected) (Homo sapiens, UniProt Q4KWH8); settings: protein PLCH1; U3A, 10 μM, 2 h
# [23] = molecular target: proteins of U3A human fibrosarcoma cells (4462 proteins detected) (Homo sapiens, UniProt Q969G3); settings: protein SMARCE1, U3A cells
# [24] = molecular target: proteins of U3A human fibrosarcoma cells (4462 proteins detected) (Homo sapiens, UniProt O75459); settings: protein PAGE1, U3A cells
# [25] = molecular target: proteins of U3A human fibrosarcoma cells (4462 proteins detected) (Homo sapiens, UniProt Q9UIC8); settings: protein LCMT1, U3A cells
# [26] = molecular target: proteins of U3A human fibrosarcoma cells (4462 proteins detected) (Homo sapiens, UniProt Q16775); settings: protein HAGH, U3A cells
# [27] = molecular target: proteins of U3A human fibrosarcoma cells (4462 proteins detected) (Homo sapiens, UniProt Q9UBQ5); settings: protein EIF3K; U3A cells
# [28] = molecular target: proteins of U3A human fibrosarcoma cells (4462 proteins detected) (Homo sapiens, UniProt Q9HAS0); settings: protein C17orf75; U3A cells
# [29] = molecular target: proteins of U3A human fibrosarcoma cells (4462 proteins detected) (Homo sapiens, UniProt P23919); settings: protein DTYMK; U3A cells
# [30] = molecular target: proteins of U3A human fibrosarcoma cells (4462 proteins detected) (Homo sapiens, UniProt Q49AR2); settings: protein C5orf22, U3A cells
# Sequence of proteins of U3A human fibrosarcoma cells (4462 proteins detected) (Homo sapiens, UniProt Q969G3) (Q969G3 whole entry): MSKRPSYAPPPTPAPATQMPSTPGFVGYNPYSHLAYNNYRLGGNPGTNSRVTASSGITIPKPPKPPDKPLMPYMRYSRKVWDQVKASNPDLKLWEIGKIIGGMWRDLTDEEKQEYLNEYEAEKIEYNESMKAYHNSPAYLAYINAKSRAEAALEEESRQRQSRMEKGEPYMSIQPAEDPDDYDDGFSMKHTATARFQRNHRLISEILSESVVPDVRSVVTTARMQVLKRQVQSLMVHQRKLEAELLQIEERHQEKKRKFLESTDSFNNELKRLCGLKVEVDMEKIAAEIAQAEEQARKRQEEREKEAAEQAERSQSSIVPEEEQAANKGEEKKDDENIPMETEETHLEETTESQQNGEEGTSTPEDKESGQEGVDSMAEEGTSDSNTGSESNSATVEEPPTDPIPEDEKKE
# Sequence of proteins of U3A human fibrosarcoma cells (4462 proteins detected) (Homo sapiens, UniProt Q9UNN8) (Q9UNN8 18-238): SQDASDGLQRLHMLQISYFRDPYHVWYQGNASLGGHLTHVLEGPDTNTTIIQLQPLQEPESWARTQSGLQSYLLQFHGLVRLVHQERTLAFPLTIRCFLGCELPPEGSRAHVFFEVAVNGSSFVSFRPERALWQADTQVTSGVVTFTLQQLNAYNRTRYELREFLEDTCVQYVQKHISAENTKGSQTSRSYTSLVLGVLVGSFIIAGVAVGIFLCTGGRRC
# Sequence of proteins of U3A human fibrosarcoma cells (4462 proteins detected) (Homo sapiens, UniProt Q9HAS0) (Q9HAS0 whole entry): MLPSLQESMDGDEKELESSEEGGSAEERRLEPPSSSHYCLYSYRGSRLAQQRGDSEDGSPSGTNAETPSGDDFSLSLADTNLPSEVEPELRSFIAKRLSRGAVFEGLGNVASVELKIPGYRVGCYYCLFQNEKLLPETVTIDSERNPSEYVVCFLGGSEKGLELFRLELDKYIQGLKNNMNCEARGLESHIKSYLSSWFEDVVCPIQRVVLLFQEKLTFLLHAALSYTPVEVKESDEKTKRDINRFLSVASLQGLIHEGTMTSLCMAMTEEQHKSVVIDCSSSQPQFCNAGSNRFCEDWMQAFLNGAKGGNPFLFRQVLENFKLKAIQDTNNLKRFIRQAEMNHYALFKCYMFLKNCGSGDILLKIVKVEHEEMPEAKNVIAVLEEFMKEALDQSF
# Sequence of proteins of U3A human fibrosarcoma cells (4462 proteins detected) (Homo sapiens, UniProt Q92692) (Q92692 32-538): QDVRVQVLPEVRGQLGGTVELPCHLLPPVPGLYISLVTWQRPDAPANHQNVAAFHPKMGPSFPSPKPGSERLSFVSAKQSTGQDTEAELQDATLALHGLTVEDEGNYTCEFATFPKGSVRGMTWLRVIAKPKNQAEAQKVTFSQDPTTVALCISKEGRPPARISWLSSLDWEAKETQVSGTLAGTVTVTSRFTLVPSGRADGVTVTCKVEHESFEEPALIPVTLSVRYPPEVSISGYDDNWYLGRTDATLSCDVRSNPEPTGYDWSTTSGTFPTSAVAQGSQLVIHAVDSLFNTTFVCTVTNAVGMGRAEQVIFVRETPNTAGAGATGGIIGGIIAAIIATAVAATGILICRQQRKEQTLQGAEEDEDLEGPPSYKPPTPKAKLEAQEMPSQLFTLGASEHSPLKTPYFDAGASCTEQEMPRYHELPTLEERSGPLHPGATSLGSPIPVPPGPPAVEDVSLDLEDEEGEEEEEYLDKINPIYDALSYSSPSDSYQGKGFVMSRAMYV
# Sequence of proteins of U3A human fibrosarcoma cells (4462 proteins detected) (Homo sapiens, UniProt Q12933) (Q12933 whole entry): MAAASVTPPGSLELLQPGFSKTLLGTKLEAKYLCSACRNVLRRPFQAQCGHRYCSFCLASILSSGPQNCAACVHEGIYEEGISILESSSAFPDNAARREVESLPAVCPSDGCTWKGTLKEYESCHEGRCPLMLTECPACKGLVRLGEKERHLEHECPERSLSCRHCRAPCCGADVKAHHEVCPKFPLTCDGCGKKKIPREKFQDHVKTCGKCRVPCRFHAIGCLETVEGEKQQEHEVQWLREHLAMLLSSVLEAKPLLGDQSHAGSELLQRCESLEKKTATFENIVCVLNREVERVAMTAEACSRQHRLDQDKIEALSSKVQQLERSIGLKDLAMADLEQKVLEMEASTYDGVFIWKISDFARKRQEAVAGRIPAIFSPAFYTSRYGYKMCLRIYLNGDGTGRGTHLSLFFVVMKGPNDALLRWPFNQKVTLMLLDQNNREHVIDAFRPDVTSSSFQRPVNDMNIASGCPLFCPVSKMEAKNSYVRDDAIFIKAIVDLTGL
# Sequence of proteins of U3A human fibrosarcoma cells (4462 proteins detected) (Homo sapiens, UniProt Q76FK4) (Q76FK4 whole entry): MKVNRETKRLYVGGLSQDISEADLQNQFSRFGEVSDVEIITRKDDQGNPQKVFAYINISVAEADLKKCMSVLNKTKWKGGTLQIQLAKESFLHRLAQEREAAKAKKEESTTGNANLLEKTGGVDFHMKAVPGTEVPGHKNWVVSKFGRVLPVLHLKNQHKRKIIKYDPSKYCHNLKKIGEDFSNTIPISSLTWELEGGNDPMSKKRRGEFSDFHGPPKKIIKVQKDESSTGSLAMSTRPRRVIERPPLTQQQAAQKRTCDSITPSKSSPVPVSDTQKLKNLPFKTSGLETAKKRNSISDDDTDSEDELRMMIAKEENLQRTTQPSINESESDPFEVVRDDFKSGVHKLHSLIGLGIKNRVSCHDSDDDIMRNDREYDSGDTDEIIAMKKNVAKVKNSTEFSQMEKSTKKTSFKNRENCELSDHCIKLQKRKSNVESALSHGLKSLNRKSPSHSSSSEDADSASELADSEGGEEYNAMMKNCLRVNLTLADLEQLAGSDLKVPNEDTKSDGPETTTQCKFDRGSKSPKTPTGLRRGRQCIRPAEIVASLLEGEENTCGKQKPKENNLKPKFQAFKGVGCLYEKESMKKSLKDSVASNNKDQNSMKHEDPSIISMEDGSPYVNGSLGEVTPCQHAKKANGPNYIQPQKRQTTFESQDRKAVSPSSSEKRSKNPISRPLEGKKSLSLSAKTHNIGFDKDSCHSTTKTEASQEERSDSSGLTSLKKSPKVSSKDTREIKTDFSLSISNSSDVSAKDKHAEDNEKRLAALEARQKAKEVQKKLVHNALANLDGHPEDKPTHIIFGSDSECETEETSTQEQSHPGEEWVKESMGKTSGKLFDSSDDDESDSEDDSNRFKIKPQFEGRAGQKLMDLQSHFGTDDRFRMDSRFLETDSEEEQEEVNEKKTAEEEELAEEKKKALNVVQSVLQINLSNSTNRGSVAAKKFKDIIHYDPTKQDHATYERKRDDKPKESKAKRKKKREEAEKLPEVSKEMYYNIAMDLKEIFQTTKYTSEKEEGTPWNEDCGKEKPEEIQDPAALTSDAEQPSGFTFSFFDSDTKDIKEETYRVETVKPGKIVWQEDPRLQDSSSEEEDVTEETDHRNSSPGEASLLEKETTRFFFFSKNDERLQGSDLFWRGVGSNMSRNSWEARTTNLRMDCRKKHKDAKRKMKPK
# Sequence of proteins of U3A human fibrosarcoma cells (4462 proteins detected) (Homo sapiens, UniProt Q8N4Q1) (Q8N4Q1 whole entry): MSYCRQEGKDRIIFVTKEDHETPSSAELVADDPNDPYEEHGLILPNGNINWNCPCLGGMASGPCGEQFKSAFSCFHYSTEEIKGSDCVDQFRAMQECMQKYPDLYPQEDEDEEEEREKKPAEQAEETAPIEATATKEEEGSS
# Sequence of proteins of U3A human fibrosarcoma cells (4462 proteins detected) (Homo sapiens, UniProt O95218) (O95218 whole entry): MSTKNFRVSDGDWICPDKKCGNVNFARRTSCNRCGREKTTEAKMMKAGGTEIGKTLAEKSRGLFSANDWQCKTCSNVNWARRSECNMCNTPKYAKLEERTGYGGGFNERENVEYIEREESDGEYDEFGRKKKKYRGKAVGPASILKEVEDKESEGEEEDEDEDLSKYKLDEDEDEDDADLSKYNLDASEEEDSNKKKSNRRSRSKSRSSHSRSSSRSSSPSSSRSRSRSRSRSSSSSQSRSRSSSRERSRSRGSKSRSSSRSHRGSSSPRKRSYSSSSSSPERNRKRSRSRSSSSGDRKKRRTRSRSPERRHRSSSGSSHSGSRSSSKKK
# Sequence of proteins of U3A human fibrosarcoma cells (4462 proteins detected) (Homo sapiens, UniProt Q9NVA2) (Q9NVA2 whole entry): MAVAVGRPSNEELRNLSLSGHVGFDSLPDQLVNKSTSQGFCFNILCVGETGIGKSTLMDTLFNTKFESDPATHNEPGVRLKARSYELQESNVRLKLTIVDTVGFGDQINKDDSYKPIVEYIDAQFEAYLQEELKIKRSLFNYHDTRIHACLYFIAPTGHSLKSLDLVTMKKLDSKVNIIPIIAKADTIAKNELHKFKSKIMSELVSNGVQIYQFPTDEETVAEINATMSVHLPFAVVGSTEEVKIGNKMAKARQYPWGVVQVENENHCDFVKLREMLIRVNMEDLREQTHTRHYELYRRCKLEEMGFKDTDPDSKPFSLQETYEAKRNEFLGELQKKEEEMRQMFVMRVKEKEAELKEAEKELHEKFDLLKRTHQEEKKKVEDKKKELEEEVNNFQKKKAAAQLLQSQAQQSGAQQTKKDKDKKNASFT
# Sequence of proteins of U3A human fibrosarcoma cells (4462 proteins detected) (Homo sapiens, UniProt P23919) (P23919 whole entry): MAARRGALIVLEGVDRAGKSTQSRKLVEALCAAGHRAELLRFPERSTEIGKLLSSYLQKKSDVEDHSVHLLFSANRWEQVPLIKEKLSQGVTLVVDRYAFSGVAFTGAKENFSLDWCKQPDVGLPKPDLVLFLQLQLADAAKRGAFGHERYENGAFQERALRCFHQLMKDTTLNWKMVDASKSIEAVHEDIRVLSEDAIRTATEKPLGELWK
# Sequence of proteins of U3A human fibrosarcoma cells (4462 proteins detected) (Homo sapiens, UniProt Q9H7Z7) (Q9H7Z7 whole entry): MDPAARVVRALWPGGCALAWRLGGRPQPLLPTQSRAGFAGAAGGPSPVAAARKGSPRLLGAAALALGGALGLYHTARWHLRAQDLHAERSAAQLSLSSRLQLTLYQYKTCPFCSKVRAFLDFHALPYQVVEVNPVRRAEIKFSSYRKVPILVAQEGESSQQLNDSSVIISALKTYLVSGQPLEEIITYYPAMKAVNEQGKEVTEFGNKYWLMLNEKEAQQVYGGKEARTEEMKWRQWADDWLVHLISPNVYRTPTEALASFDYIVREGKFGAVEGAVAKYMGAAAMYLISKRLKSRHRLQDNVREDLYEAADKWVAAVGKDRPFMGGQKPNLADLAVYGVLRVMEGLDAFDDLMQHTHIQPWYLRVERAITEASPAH
# Sequence of proteins of U3A human fibrosarcoma cells (4462 proteins detected) (Homo sapiens, UniProt Q99470) (Q99470 19-211): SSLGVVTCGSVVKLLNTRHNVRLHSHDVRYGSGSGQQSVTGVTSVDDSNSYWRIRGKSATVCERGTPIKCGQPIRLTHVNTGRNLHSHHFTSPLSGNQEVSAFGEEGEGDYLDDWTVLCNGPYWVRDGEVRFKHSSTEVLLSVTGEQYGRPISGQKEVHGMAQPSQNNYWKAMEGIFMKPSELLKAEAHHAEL
smiles,measurement,setting,value
CCc1nc(N)nc(N)c1-c1ccc(Cl)cc1 [pyrimethamine],Log2 (PYR/DMSO),[1],0.14
same,Log2 (PYR/DMSO),[2],0.16
same,Log2 (PYR/DMSO),[3],0.20
same,Log2 (PYR/DMSO),[4],0.13
same,Log2 (PYR/DMSO),[5],-0.04
same,Log2 (PYR/DMSO),[6],0.17
same,Log2 (PYR/DMSO),[7],0.17
same,Log2 (PYR/DMSO),[8],-0.04
same,Log2 (PYR/DMSO),[9],0.17
same,Log2 (PYR/DMSO),[10],-0.04
same,Log2 (PYR/DMSO),[11],-0.04
same,Log2 (PYR/DMSO),[12],0.18
same,Log2 (PYR/DMSO),[13],0.18
same,Log2 (PYR/DMSO),[14],0.14
same,"Log2 (PYR/DMSO), EIF5A2",[15],-0.18
same,Log2 (PYR/DMSO),[16],0.22
same,Log2 (PYR/DMSO),[17],-0.04
same,Log2 (PYR/DMSO),[18],-0.04
same,Log2 (PYR/DMSO),[19],-0.05
same,Log2 (PYR/DMSO),[20],0.14
same,Log2 (PYR/DMSO),[21],0.18
same,"Log2 (PYR/DMSO), PLCH1",[22],0.32
same,Log2 (PYR/DMSO),[23],-0.05
same,Log2 (PYR/DMSO),[24],-0.04
same,Log2 (PYR/DMSO),[25],-0.04
same,Log2 (PYR/DMSO),[26],-0.04
same,Log2 (PYR/DMSO),[27],0.20
same,Log2 (PYR/DMSO),[28],0.18
same,Log2 (PYR/DMSO),[29],0.20
same,Log2 (PYR/DMSO),[30],-0.04
